Assay results taken from US20250084074A1, “SUBSTITUTED HETEROCYCLES AS HSET INHIBITORS” (MERCK PATENT GMBH, priority 2022, published 2025).
Counter-ions that a name gives are not always drawn.

Molecular target: HSET full length protein (Homo sapiens (Human), UniProt Q9BW19)
Assay: HSET ADP-Glo Assay S - 3 μM ATP
Assay type: biochemical
Conditions: 5 nM HSET, 70 μg/mL microtubule, 80 min at rt, read-out: COMBINED HSET ADP GLO IC50
How it was run: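 Full-length human HSET (5 nM) with paclitaxel-stabilised bovine brain microtubules (70 μg/mL) in HEPES pH 6.8 buffer was preincubated 10 min with compound. ATP at 3 μM started the reaction, which ran 80 min at rt. ADP formed was measured by ADP-Glo luminescence.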

Sequence of HSET full length protein (Q9BW19 whole entry): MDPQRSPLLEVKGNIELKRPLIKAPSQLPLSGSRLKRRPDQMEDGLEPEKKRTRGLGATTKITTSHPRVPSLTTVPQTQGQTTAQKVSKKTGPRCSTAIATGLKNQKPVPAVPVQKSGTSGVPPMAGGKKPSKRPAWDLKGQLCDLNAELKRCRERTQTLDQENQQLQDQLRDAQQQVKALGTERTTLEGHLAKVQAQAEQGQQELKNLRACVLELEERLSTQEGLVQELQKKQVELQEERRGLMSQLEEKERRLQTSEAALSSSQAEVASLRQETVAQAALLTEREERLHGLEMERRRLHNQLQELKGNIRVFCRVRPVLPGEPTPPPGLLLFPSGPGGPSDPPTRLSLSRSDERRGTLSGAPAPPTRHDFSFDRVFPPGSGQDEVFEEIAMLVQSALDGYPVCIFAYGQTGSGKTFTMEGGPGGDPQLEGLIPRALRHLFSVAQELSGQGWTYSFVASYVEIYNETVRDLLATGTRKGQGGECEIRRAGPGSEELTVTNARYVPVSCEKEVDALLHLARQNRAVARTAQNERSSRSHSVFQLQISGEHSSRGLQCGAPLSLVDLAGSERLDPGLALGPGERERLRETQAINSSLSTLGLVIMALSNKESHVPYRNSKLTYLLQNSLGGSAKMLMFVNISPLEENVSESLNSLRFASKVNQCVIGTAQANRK

| IC50 [µM] | SMILES |
| --- | --- |
| 3.89 | CCCNC(=O)c1cc(NC(=O)CCNc2nccc3ccc(-c4noc(C)n4)cc23)nn1C [Example 73, 1-Methyl-3-(3-((7-(5-methyl-1,2,4-oxadiazol-3-yl)isoquinolin-1-yl)amino)propanamido)-N-propyl-1 H-pyrazole-5-carboxamide] |
| 0.272 | CCCOC(=O)c1sc(C(=O)N(C)CCNc2nccc3ccc(-c4noc(C)n4)cc23)nc1C [Example 74, Propyl 4-methyl-2-(methyl(2-((7-(5-methyl-1,2,4-oxadiazol-3-yl)isoquinolin-1-yl)amino)ethyl)carbamoyl)thiazole-5-carboxylate] |
| 8.31 | CCc1cc(NC(=O)CCNc2nccc3ccc(-c4noc(C)n4)cc23)nn1C [Example 76] |
| 0.556 | Cc1nc(-c2ccc3ccnc(NCCC(=O)Nc4cc(C(C)(C)C)on4)c3c2)no1 [Example 77, N-(5-(tert-butyl)isoxazol-3-yl)-3-((7-(5-methyl-1,2,4-oxadiazol-3-yl)isoquinolin-1-yl)amino)propenamide] |
| 1.5 | Cc1nc(-c2ccc3ccnc(NCCC(=O)Nc4cc(C5CC5)on4)c3c2)no1 [Example 78] |
| 4.34 | CCc1cc(NC(=O)CCNc2nccc3ccc(-c4noc(C)n4)cc23)no1 [Example 79, N-(5-ethylisoxazol-3-yl)-3-((7-(5-methyl-1,2,4-oxadiazol-3-yl)isoquinolin-1-yl)amino)propanamide] |
| 0.201 | Cc1nc(-c2ccc3ccnc(NCCC(=O)Nc4ncc(C(C)(C)C)s4)c3c2)no1 [Example 80, N-(5-(tert-butyl)thiazol-2-yl)-3-((7-(5-methyl-1,2,4-oxadiazol-3-yl)isoquinolin-1-yl)amino)propanamide] |
| 0.021 | CCc1nc(NC(=O)CCNc2nccc3ccc(-c4noc(C)n4)cc23)sc1C(C)(C)C [Example 81, N-(5-(tert-butyl)-4-ethylthiazol-2-yl)-3-((7-(5-methyl-1,2,4-oxadiazol-3-yl)isoquinolin-1-yl)amino)propanamide] |
| 1.68 | COC1(c2sc(NC(=O)CCNc3nccc4ccc(-c5noc(C)n5)cc34)nc2C)COC1 [Example 83, N-[5-(3-methoxyoxetan-3-yl)-4-methyl-thiazol-2-yl]-3-[[7-(5-methyl-1,2,4-oxadiazol-3-yl)-1-isoquinolyl]amino]propanamide] |
| 0.057 | CCCOC1(c2sc(NC(=O)CCNc3nccc4ccc(-c5noc(C)n5)cc34)nc2C)COC1 [Example 84] |
| 1.74 | CCCN(C)C(=O)c1sc(NC(=O)CCNc2nccc3ccc(-c4noc(C)n4)cc23)nc1C [Example 85, N,4-dimethyl-2-[3-[[7-(5-methyl-1,2,4-oxadiazol-3-yl)-1-isoquinolyl]amino]propanoylamino]-N-propyl-thiazole-5-carboxamide] |
| 0.848 | Cc1nc(-c2ccc3ccnc(NCCC(=O)Nc4ncc(C5=CCCCC5)s4)c3c2)no1 [Example 86] |
| 9.38 | COC1(c2cnc(NC(=O)CCNc3nccc4ccc(-c5noc(C)n5)cc34)s2)CCCCC1 [Example 87] |
| 0.477 | CCOC(=O)c1sc(NC(=O)CCNC(=O)c2cccc(-c3noc(C)n3)c2)nc1C(C)C [Example 88, Ethyl 4-isopropyl-2-[3-[[3-(5-methyl-1,2,4-oxadiazol-3-yl)benzoyl]amino]propanoylamino]thiazole-5-carboxylate] |
| 0.391 | Cc1nc(NC(=O)CCNC(=O)c2cccc(-c3cnn(C)c3)c2)sc1C(=O)OC(C)(C)C [Example 89, tert-Butyl-4-methyl-2-(3-(3-(1-methyl-1 H-pyrazol-4-yl)benzamido)propanamido)thiazole-5-carboxylate] |
| 0.556 | CCc1nc(NC(=O)CCNC(=O)c2cccc(-c3noc(C)n3)c2)sc1C(=O)OC [Example 90, Methyl 4-ethyl-2-[3-[[3-(5-methyl-1,2,4-oxadiazol-3-yl)benzoyl]amino]propanoylamino]thiazole-5-carboxylate] |
| 0.415 | CCOC(=O)c1sc(NC(=O)CCNC(=O)c2cccc(-c3noc(C)n3)c2)nc1C(F)(F)F [Example 91, Ethyl 2-[3-[[3-(5-methyl-1,2,4-oxadiazol-3-yl)benzoyl]amino]propanoylamino]-4-(trifluoromethyl)thiazole-5-carboxylate] |

| IC50 [µM] | SMILES |
| --- | --- |
| 0.045 | CCOC(=O)c1sc(NC(=O)CCNC(=O)c2cccc(-c3noc(C)n3)c2)nc1CC [Example 92, Ethyl 4-ethyl-2-[3-[[3-(5-methyl-1,2,4-oxadiazol-3-yl)benzoyl]amino]propanoylamino]thiazole-5-carboxylate] |
| 0.691 | Cc1nc(-c2cccc(C(=O)NCCC(=O)Nc3nc(C)c(/C=C/C4CCCC4)s3)c2)no1 [Example 93, N-[3-[[5-[(E)-2-cyclopentylvinyl]-4-methyl-thiazol-2-yl]amino]-3-oxo-propyl]-3-(5-methyl-1,2,4-oxadiazol-3-yl)benzamide] |
| 13.4 | COC/C=C/c1sc(NC(=O)CCNC(=O)c2cccc(-c3noc(C)n3)c2)nc1C [Example 94, N-[3-[[5-[(E)-3-methoxyprop-1-enyl]-4-methyl-thiazol-2-yl]amino]-3-oxo-propyl]-3-(5-methyl-1,2,4-oxadiazol-3-yl)benzamide] |
| 0.823 | C=C(c1ccccc1)c1sc(NC(=O)CCNC(=O)c2cccc(-c3noc(C)n3)c2)nc1C [Example 95, 3-(5-Methyl-1,2,4-oxadiazol-3-yl)-N-[3-[[4-methyl-5-(1-phenylvinyl)thiazol-2-yl]amino]-3-oxo-propyl]benzamide] |
| 2.19 | Cc1nc(-c2ccc3ccnc(N[C@H]4C[C@@H](C(=O)Nc5ncc(C(F)(F)C(F)(F)F)s5)C4)c3c2)no1 [Example 96, 3-[[7-(5-methyl-1,2,4-oxadiazol-3-yl)-1-isoquinolyl]amino]-N-[5-(1,1,2,2,2-pentafluoroethyl)thiazol-2-yl]cyclobutanecarboxamide] |
| 0.072 | Cc1nc(-c2ccc3ccnc(N[C@H]4C[C@@H](C(=O)Nc5nc(C)c(C(C)(C)C)s5)C4)c3c2)no1 [Example 98, (1 s,3s)-N-(5-(tert-butyl)-4-methylthiazol-2-yl)-3-((7-(5-methyl-1,2,4-oxadiazol-3-yl)isoquinolin-1-yl)amino)cyclobutane-1-carboxamide] |
| 0.007 | CCCOC(=O)c1sc(NC(=O)[C@H]2C[C@@H](Nc3nccc4ccc(-c5noc(C)n5)cc34)C2)nc1C [Example 99, Propyl4-methyl-2-((1s,3s)-3-((7-(5-methyl-1,2,4-oxadiazol-3-yl)isoquinolin-1-yl)amino)cyclobutane-1-carboxamido)thiazole-5-carboxylate] |
| 0.836 | Cc1nc(-c2ccc3ccnc(N[C@H]4C[C@@H](C(=O)Nc5cc(C(C)(C)C)on5)C4)c3c2)no1 [Example 100, (1 s,3s)-N-(5-(tert-butyl)isoxazol-3-yl)-3-((7-(5-methyl-1,2,4-oxadiazol-3-yl)isoquinolin-1-yl)amino)cyclobutane-1-carboxamide] |
| 0.276 | CCCCCc1cc(NC(=O)[C@H]2C[C@@H](Nc3nccc4ccc(-c5noc(C)n5)cc34)C2)nn1C [Example 101, (1s,3s)-3-((7-(5-methyl-1,2,4-oxadiazol-3-yl)isoquinolin-1-yl)amino)-N-(1-methyl-5-pentyl-1 H-pyrazol-3-yl)cyclobutane-1-carboxamide] |
| 0.409 | Cc1nc(-c2ccc3ccnc(N[C@H]4C[C@@H](C(=O)Nc5cc(C)c(CC(C)C)s5)C4)c3c2)no1 [Example 102, (1s,3s)-N-(5-isobutyl-4-methylthiophen-2-yl)-3-((7-(5-methyl-1,2,4-oxadiazol-3-yl)isoquinolin-1-yl)amino)cyclobutane-1-carboxamide formate] |
| 0.676 | Cc1nc(-c2ccc3ccnc(N[C@H]4C[C@@H](C(=O)Nc5nc(C)c(C(F)(F)F)s5)C4)c3c2)no1 [Example 103, (1s,3s)-3-((7-(5-methyl-1,2,4-oxadiazol-3-yl)isoquinolin-1-yl)amino)-N-(4-methyl-5-(trifluoromethyl)thiazol-2-yl)cyclobutane-1-carboxamide] |
| 0.093 | Cc1nc(-c2cccc(C(=O)N[C@H]3C[C@@H](C(=O)Nc4nc(C)c(C(=O)OC(C)(C)C)s4)C3)c2)no1 [Example 104, tert-Butyl 4-methyl-2-((1s,3s)-3-(3-(5-methyl-1,2,4-oxadiazol-3-yl)benzamido)cyclobutane-1-carboxamido)thiazole-5-carboxylate] |
| 1.59 | Cc1nc(NC(=O)[C@H]2C[C@@H](NC(=O)c3cccc(-c4ncon4)c3)C2)sc1C(=O)OC(C)(C)C [Example 105, tert-Butyl 2-((1s,3s)-3-(3-(1,2,4-oxadiazol-3-yl)benzamido)cyclobutane-1-carboxamido)-4-methylthiazole-5-carboxylate] |
| 0.132 | Cc1nnc(-c2cccc(C(=O)N[C@H]3C[C@@H](C(=O)Nc4nc(C)c(C(=O)OC(C)(C)C)s4)C3)c2)o1 [Example 106, tert-Butyl 4-methyl-2-((1s,3s)-3-(3-(5-methyl-1,3,4-oxadiazol-2-yl)benzamido)cyclobutane-1-carboxamido)thiazole-5-carboxylate] |
| 0.041 | Cc1nc(NC(=O)[C@H]2C[C@@H](NC(=O)c3cccc(-c4nnn(C)n4)c3)C2)sc1C(=O)OC(C)(C)C [Example 107, tert-Butyl-4-methyl-2-((1s,3s)-3-(3-(2-methyl-2H-tetrazol-5-yl)benzamido)cyclobutane-1-carboxamido)thiazole-5-carboxylate] |
| 1.62 | Cc1nc(NC(=O)[C@H]2C[C@@H](Nc3nccc4ccc(Cl)cc34)C2)sc1C(=O)OC(C)(C)C [Example 108, tert-Butyl 2-((1s,3s)-3-((7-chloroisoquinolin-1-yl)amino)cyclobutane-1-carboxamido)-4-methylthiazole-5-carboxylate] |

| SMILES | IC50 [µM] |
| --- | --- |
| Cc1nc(-c2ccc3ccnc(NCCC(=O)Nc4cc(C(C)(C)C)n(C)n4)c3c2)no1 [Example 82, N-(5-(tert-butyl)-1-methyl-1 H-pyrazol-3-yl)-3-((7-(5-methyl-1,2,4-oxadiazol-3-yl)isoquinolin-1-yl)amino)propanamide] | 1.48 |
